Measured values from ChEMBL document CHEMBL1124693, “Synthesis of the novel pi-(benzyloxymethyl)-protected histidine analogue of statine. Inhibition of penicillopepsin by pepstatin-derived peptides containing different statine side-chain derivatives” (J Med Chem, 1989).

Assays:
[1] = system: Penicillopepsin (Penicillium janthinellum); experiment: Inhibitory activity against pencillopepsin
[2] = system: Penicillopepsin (Penicillium janthinellum); experiment: Slow binding kinetics after pre-incubation of enzyme and inhibitor for 10 min before substrate addition;+ indicates weak inhibition of penicillopepsin.

Slow binding [2]	SMILES	Ki [1]
	CCOC(=O)C[C@H](O)[C@H](CC(C)C)NC(=O)[C@H](NC(=O)[C@@H](NC(=O)CC(C)C)C(C)C)C(C)C	> 18 µM
	CCOC(=O)C[C@H](O)[C@H](Cc1ccccc1)NC(=O)[C@@H](NC(=O)[C@@H](NC(=O)CC(C)C)C(C)C)C(C)C	0.015 µM
	CCOC(=O)C[C@H](O)[C@H](CCCN)NC(=O)[C@@H](NC(=O)[C@@H](NC(=O)CC(C)C)C(C)C)C(C)C	0.0011 µM
weak inhibition of porcine pepsin	COC(=O)C[C@H](O)[C@H](Cc1c[nH]cn1)NC(=O)[C@@H](NC(=O)[C@@H](NC(=O)CC(C)C)C(C)C)C(C)C	0.0045 µM
	CCOC(=O)C[C@H](O)[C@H](CC(C)C)NC(=O)[C@@H](NC(=O)[C@@H](NC(=O)CC(C)C)C(C)C)C(C)C	0.072 µM
